Test results published in patent US10233182B2, “Substituted spirocyclic inhibitors of autotaxin” (X-Rx, Inc., priority 2014, dated 2019).

Molecular target: Autotaxin (Homo sapiens (Human), UniProt Q13822)
Assay: Autotaxin LPC Cascade Assay
Format: biochemical
Details: Autotaxin 5 nM, LPC 100 μM, choline oxidase/HRP/Ampliflu Red fluorescence read-out, 2% DMSO, RT; read-out: IC50 ATX Activity
In short: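 Choline liberated from LPC by autotaxin during 1 h, after a 10-min RT compound preincubation, was converted through choline oxidase/HRP to a fluorescent Ampliflu Red product.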

In the case of `CCc1ccc(F)c(C(=O)N[C@@H](C(=O)N2CCC3(CC2)C(=O)N(C)C(=O)N3c2ccccc2)C(C)C)c1` [Example 39, (R)-5-Ethyl-2-fluoro-N-(3-methyl-1-(3-methyl-2,4-dioxo-1-phenyl-1,3,8-triazaspiro[4.5]decan-8-yl)-1-oxobutan-2-yl)benzamide], the IC50 is reported as less than 500 nM.

With `CC(C)[C@@H](NC(=O)c1cc(C(F)(F)F)ccc1F)C(=O)N1CCC2(CC1)C(=O)N(C)[C@@H](C)N2c1ccc(C(=O)O)cc1` [Example 213, 4-((S)-8-((R)-2-(2-Fluoro-5-(trifluoromethyl)benzamido)-3-methylbutanoyl)-2,3-dimethyl-4-oxo-1,3,8-triazaspiro[4.5]decan-1-yl)benzoic Acid] the IC50 was less than 500 nM.

With `CCc1ccc(F)c(C(=O)N[C@@H](C(=O)N2CCC3(CC2)C(=O)N(C)C(=O)N3c2ccc3[nH]c(=O)oc3c2)C(C)C)c1` [Example 31, (R)-5-Ethyl-2-fluoro-N-(3-methyl-1-(3-methyl-2,4-dioxo-1-(2-oxo-2,3-dihydrobenzo[d]oxazol-6-yl)-1,3,8-triazaspiro[4.5]decan-8-yl)-1-oxobutan-2-yl)benzamide] the IC50 was less than 500 nM.

`CCc1ccc(F)c(C(=O)N[C@@H](C(=O)N2CCC3(CC2)C(=O)N(C)CN3c2ccc3[nH]ncc3c2)C(C)C)c1` [Example 215, (R)—N-(1-(1-(1H-Indazol-5-yl)-3-methyl-4-oxo-1,3,8-triazaspiro[4.5]decan-8-yl)-3-methyl-1-oxobutan-2-yl)-5-ethyl-2-fluorobenzamide] gave an IC50 of less than 500 nM.

`CCc1ccc(F)c(C(=O)N[C@@H](C(=O)N2CCC3(CC2)C(=O)N(C)CN3c2ccc(S(C)(=O)=O)cc2)C(C)C)c1` [Example 200, (R)-5-Ethyl-2-fluoro-N-(3-methyl-1-(3-methyl-1-(4-(methylsulfonyl)phenyl)-4-oxo-1,3,8-triazaspiro[4.5]decan-8-yl)-1-oxobutan-2-yl)benzamide] gave an IC50 of less than 500 nM.

`CC(C)[C@@H](NC(=O)c1cc(C(F)(F)F)ccc1F)C(=O)N1CCC2(CC1)C(=O)N(C)C(=O)N2c1ccc(OCCO)cc1` [Example 84, (R)-2-Fluoro-N-(1-(1-(4-(2-hydroxyethoxy)phenyl)-3-methyl-2,4-dioxo-1,3,8-triazaspiro[4.5]decan-8-yl)-3-methyl-1-oxobutan-2-yl)-5-(trifluoromethyl)benzamide] gave an IC50 of less than 500 nM.

`CN1C(=O)N(c2ccc(=O)n(C)c2)C2(CCN(C(=O)[C@H](NC(=O)c3cc(C(F)(F)F)ccc3F)C3CCCC3)CC2)C1=O` [Example 24, (R)—N-(1-Cyclopentyl-2-(3-methyl-1-(1-methyl-6-oxo-1,6-dihydropyridin-3-yl)-2,4-dioxo-1,3,8-triazaspiro[4.5]decan-8-yl)-2-oxoethyl)-2-fluoro-5-(trifluoromethyl)benzamide] was tested, and the IC50 was less than 500 nM.

For `CC(C)[C@@H](NC(=O)c1cc(C(F)(F)F)ccc1F)C(=O)N1CCC2(CC1)C(=O)N(C)C(=O)N2Cc1ccccc1` [Example 89, (R)—N-(1-(1-Benzyl-3-methyl-2,4-dioxo-1,3,8-triazaspiro[4.5]decan-8-yl)-3-methyl-1-oxobutan-2-yl)-2-fluoro-5-(trifluoromethyl)benzamide], the IC50 was less than 500 nM.

`CC(C)[C@@H](NC(=O)c1cccc(C(F)(F)F)c1)C(=O)N1CCC2(CC1)C(=O)N(C)C(=O)N2c1ccc2[nH]ncc2c1` [Example 59, (R)—N-(1-(1-(1H-Indazol-5-yl)-3-methyl-2,4-dioxo-1,3,8-triazaspiro[4.5]decan-8-yl)-3-methyl-1-oxobutan-2-yl)-3-(trifluoromethyl)benzamide] showed an IC50 of less than 500 nM.

For `CC(C)[C@@H](NC(=O)c1cc(C(F)(F)F)ccc1F)C(=O)N1CCC2(CC1)C(=O)N(C)C(=O)N2c1ccc2c(c1)OCC(=O)N2` [Example 30, (R)-2-Fluoro-N-(3-methyl-1-(3-methyl-2,4-dioxo-1-(3-oxo-3,4-dihydro-2H-benzo[b][1,4]oxazin-7-yl)-1,3,8-triazaspiro[4.5]decan-8-yl)-1-oxobutan-2-yl)-5-(trifluoromethyl)benzamide], the IC50 was 500 to 1000 nM.

`COc1ccc(CN2C(=O)N(C)C(=O)C23CCN(C(=O)[C@H](NC(=O)c2cc(C(F)(F)F)ccc2F)C(C)C)CC3)cn1` [Example 97, (R)-2-Fluoro-N-(1-(1-((6-methoxypyridin-3-yl)methyl)-3-methyl-2,4-dioxo-1,3,8-triazaspiro[4.5]decan-8-yl)-3-methyl-1-oxobutan-2-yl)-5-(trifluoromethyl)benzamide] gave an IC50 of less than 500 nM.

Work on `CN1C(=O)N(c2ccc3[nH]ncc3c2)C2(CCN(C(=O)C(C)(C)NC(=O)c3cc(C(F)(F)F)ccc3F)CC2)C1=O` [Example 74, N-(1-(1-(1H-Indazol-5-yl)-3-methyl-2,4-dioxo-1,3,8-triazaspiro[4.5]decan-8-yl)-2-methyl-1-oxopropan-2-yl)-2-fluoro-5-(trifluoromethyl)benzamide] yielded an IC50 of no less than 1000 nM.

`CC(C)[C@@H](NC(=O)c1cc(C(F)(F)F)ccc1F)C(=O)N1CCC2(CC1)C(=O)N(C)C(=O)N2c1ccccc1` [Example 44, (R)-2-Fluoro-N-(3-methyl-1-(3-methyl-2,4-dioxo-1-phenyl-1,3,8-triazaspiro[4.5]decan-8-yl)-1-oxobutan-2-yl)-5-(trifluoromethyl)benzamide] was tested, and the IC50 was less than 500 nM.

In the case of `CC(C)[C@@H](NC(=O)c1cc(F)ccc1F)C(=O)N1CCC2(CC1)C(=O)N(C)C(=O)N2c1ccc2[nH]ncc2c1` [Example 66, (R)—N-(1-(1-(1H-Indazol-5-yl)-3-methyl-2,4-dioxo-1,3,8-triazaspiro[4.5]decan-8-yl)-3-methyl-1-oxobutan-2-yl)-2,5-difluorobenzamide], the IC50 is reported as 500 to 1000 nM.

`CC(C)[C@@H](NC(=O)c1cc(C(F)(F)F)ccc1F)C(=O)N1CCC2(CC1)C(=O)N(C)C(=O)N2c1ccc2[nH]c(=O)oc2c1` [Example 28, (R)-2-Fluoro-N-(3-methyl-1-(3-methyl-2,4-dioxo-1-(2-oxo-2,3-dihydrobenzo[d]oxazol-6-yl)-1,3,8-triazaspiro[4.5]decan-8-yl)-1-oxobutan-2-yl)-5-(trifluoromethyl)benzamide] was tested, and the IC50 was less than 500 nM.

`COc1ccc(N2C(=O)N(C)C(=O)C23CCN(C(=O)[C@H](NC(=O)c2cc(C(F)(F)F)ccc2F)C(C)C)CC3)cn1` [Example 25, (R)-2-Fluoro-N-(1-(1-(6-methoxypyridin-3-yl)-3-methyl-2,4-dioxo-1,3,8-triazaspiro[4.5]decan-8-yl)-3-methyl-1-oxobutan-2-yl)-5-(trifluoromethyl)benzamide] showed an IC50 of less than 500 nM.

With `CC(C)[C@@H](NC(=O)c1cc(C(F)(F)F)ccc1F)C(=O)N1CCC2(CC1)C(=O)N(C)[C@H](C)N2c1ccc(C(=O)O)cc1` [Example 212, 4-((R)-8-((R)-2-(2-Fluoro-5-(trifluoromethyl)benzamido)-3-methylbutanoyl)-2,3-dimethyl-4-oxo-1,3,8-triazaspiro[4.5]decan-1-yl)benzoic Acid] the IC50 was less than 500 nM.

With `COc1ccc(CN2C(=O)N(C)C(=O)C23CCN(C(=O)[C@H](NC(=O)c2cc(C(F)(F)F)ccc2F)C(C)C)CC3)c(Cl)c1` [Example 119, (R)—N-(1-(1-(2-Chloro-4-methoxybenzyl)-3-methyl-2,4-dioxo-1,3,8-triazaspiro[4.5]decan-8-yl)-3-methyl-1-oxobutan-2-yl)-2-fluoro-5-(trifluoromethyl)benzamide] the IC50 was less than 500 nM.

Compound `CC(C)[C@@H](NC(=O)c1cc(C(F)(F)F)ccc1F)C(=O)N1CCC2(CC1)C(=O)N(C)C(=O)N2c1ccc2occc2c1` [Example 27, (R)-2-Fluoro-N-(3-methyl-1-(3-methyl-2,4-dioxo-1-(5-benzofuran)-1,3,8-triazaspiro[4.5]decan-8-yl)-1-oxobutan-2-yl)-5-(trifluoromethyl)benzamide] has an IC50 of less than 500 nM.

Compound `CCc1ccc(F)c(C(=O)N[C@@H](C(=O)N2CCC3(CC2)C(=O)N(C)CN3c2ccc(OCC(N)=O)cc2)C(C)C)c1` [Example 169, (R)—N-(1-(1-(4-(2-Amino-2-oxoethoxy)phenyl)-3-methyl-4-oxo-1,3,8-triazaspiro[4.5]decan-8-yl)-3-methyl-1-oxobutan-2-yl)-5-ethyl-2-fluorobenzamide] has an IC50 of less than 500 nM.

`Cc1cccc(C(=O)N[C@@H](C(=O)N2CCC3(CC2)C(=O)N(C)CN3c2ccccc2)C2CCOCC2)c1` (single isomer, unassigned) [Example 129] showed an IC50 of 500 to 1000 nM.

With `Cc1cccc(C(=O)N[C@@H](C(=O)N2CCC3(CC2)C(=O)N(C)CN3c2ccc(C(=O)O)cc2)C(C)C)c1F` [Example 150, (R)-4-(8-(2-(2-Fluoro-3-methylbenzamido)-3-methylbutanoyl)-3-methyl-4-oxo-1,3,8-triazaspiro[4.5]decan-1-yl)benzoic Acid] the IC50 was less than 500 nM.

`CC(C)[C@@H](NC(=O)c1cc(C(F)(F)F)ccc1F)C(=O)N1CCC2(CC1)C(=O)N(C)C(=O)N2CC1CCOCC1` [Example 79, (R)-2-Fluoro-N-(3-methyl-1-(3-methyl-2,4-dioxo-1-((tetrahydro-2H-pyran-4-yl)methyl)-1,3,8-triazaspiro[4.5]decan-8-yl)-1-oxobutan-2-yl)-5-(trifluoromethyl)benzamide] showed an IC50 of 500 to 1000 nM.

With `CC(C)[C@@H](NC(=O)c1cc(C(F)(F)F)ccc1F)C(=O)N1CCC2(CC1)C(=O)N(C)C(=O)N2c1ccc2c(c1)OCO2` [Example 191, (R)—N-(1-(1-(Benzo[d][1,3]dioxol-5-yl)-3-methyl-2,4-dioxo-1,3,8-triazaspiro[4.5]decan-8-yl)-3-methyl-1-oxobutan-2-yl)-2-fluoro-5-(trifluoromethyl)benzamide] the IC50 was less than 500 nM.

Compound `CC(C)[C@@H](NC(=O)c1cc(C(F)(F)F)ccc1F)C(=O)N1CCC2(CC1)C(=O)N(C)C(=O)N2Cc1ccc(F)cc1` [Example 90, (R)-2-Fluoro-N-(1-(1-(4-fluorobenzyl)-3-methyl-2,4-dioxo-1,3,8-triazaspiro[4.5]decan-8-yl)-3-methyl-1-oxobutan-2-yl)-5-(trifluoromethyl)benzamide] has an IC50 of less than 500 nM.

`Cc1cccc(C(=O)N[C@@H](C(=O)N2CCC3(CC2)C(=O)N(C)CN3c2cccc(B(O)O)c2)C(C)C)c1F` [Example 148, (R)-3-(8-(2-(2-Fluoro-3-methylbenzamido)-3-methylbutanoyl)-3-methyl-4-oxo-1,3,8-triazaspiro[4.5]decan-1-yl)phenylboronic Acid] showed an IC50 of no less than 1000 nM.
